These are literature values, as cited in patent publication US20060018842A1, “Composition and method for delivery of phytochemicals” (priority 2004, published 2006).

“Also recorded” adds a separate entry of the source.

The first series has as its system breast cancer cell line MCF7.
Conditions: not given
Consider `CC(C)=CCC/C(C)=C/C=C/C(C)=C/C=C/C(C)=C/C=C/C=C(C)/C=C/C=C(C)/C=C/C=C(\C)CCC=C(C)C` [lycopene], for which the IGF-1 stimulated proliferation result was “blocked IGF-1 stimulated proliferation”.

A further series deals with oral cancer.
Conditions: not given
Consider `O=C(/C=C/c1ccc(O)c(O)c1)O[C@@H]1C[C@](O)(C(=O)O)C[C@@H](O)[C@H]1O` [CGA, chlorogenic acid], for which the Apoptosis entry was “induced caspase-3-dependent apoptosis”.

A further series has as its system oral cancer cell line KB-1. Particulars: key protein for gap junction formation.
With `CC(C)=CCC/C(C)=C/C=C/C(C)=C/C=C/C(C)=C/C=C/C=C(C)/C=C/C=C(C)/C=C/C=C(\C)CCC=C(C)C` [lycopene], the “Induction of connexin 43” value is on record as “specifically induced”.

The series is the same for the next values; noted with them: physiological lycopene concentrations.
With `CC(C)=CCC/C(C)=C/C=C/C(C)=C/C=C/C(C)=C/C=C/C=C(C)/C=C/C=C(C)/C=C/C=C(\C)CCC=C(C)C` [lycopene], the “KB-1 cells, % of control cell numbers” value is reported as “approximately 10%”.

A further series deals with oral squamous cell carcinoma (OSCC) cells. Particulars: oral tumor cells.
On to `COc1ccc2c3c1O[C@H]1C(=O)C=C[C@H]4[C@@H](C2)N(C)CC[C@]314` [codeinone], for which the Selectivity of cytotoxicity result is “selectively higher in oral tumor cells”.

Still in this series, the particulars now being: targets the mitochondria.
For the compound `COc1ccc2c3c1O[C@H]1C(=O)C=C[C@H]4[C@@H](C2)N(C)CC[C@]314` [codeinone], the Apoptosis entry is on record as “caspase-3-dependent apoptosis”.

The next series deals with microorganisms named in the source.
Conditions: not given
In the case of `COc1cc(CNC(=O)CCCC/C=C/C(C)C)ccc1O` [Capesicin], the Activity entry is listed as “Bacteria”.

The same series, now with this note: organisms against which activity was observed; General = general antimicrobial.
In the case of `C=CCSSC=CC[S+]([O-])CC=C` (mixture of isomers) [ajoene], the Activity entry is “General”.

`C=CCS[S+]([O-])CC=C` (stereo not drawn) [Allicin]: the Activity result is given as “Bacteria, Candida; also recorded: General”.

On to `CC1(C)C=Cc2c(cc3occ(-c4ccc(O)cc4)c(=O)c3c2O)O1` [Alpinumisoflavone], for which the Activity result is recorded as “Schiatosome”.

As to `COc1ccc2cc3[n+](cc2c1OC)CCc1cc2c(cc1-3)OCO2` [Berberine], the Activity result is on record as “Plasmodium; also recorded: Trypansomea, general; also recorded: Bacteria, protozoa; also recorded: Bacteria, Giardia duodenals,; also recorded: trypanosomes; also recorded: Platmodia”.

For the compound `Cc1ccc(C(C)C)cc1O` [Carvacrol], the Activity result is given as “General”.

In the case of `COc1cc2c(c(OC)c1OC)-c1ccc(OC)c(=O)cc1[C@@H](NC(C)=O)CC2` [Colchicines, reference compound], the Activity result was “General”.

Turning to `C=CCc1ccc(O)c(OC)c1` [Eugonol], the Activity entry is recorded as “General”.

`O=C(CO)[C@@H](O)[C@H](O)[C@H](O)CO` [Fructose]: the Activity result was “E. coli; also recorded: Bacteria”.

Consider `O=C(O)c1cc(O)c(O)c(O)c1` [Gallic acid], for which the Activity result is reported as “S. aureus”.

In the case of `CC(C)=CCc1cc([C@@H]2CC(=O)c3ccc(O)c(CC=C(C)C)c3O2)ccc1O` [Glabrol], the Activity result is “S. aureus, M. tuberculosis”.

As for `O=C1C=C(O)C(=O)c2ccccc21` [Lawsone], the Activity entry is “M. tuberculosis”.

Consider `CC(C)=CCC1=C(O)C(C(=O)CC(C)C)=C(O)C(CC=C(C)C)(CC=C(C)C)C1=O` [Lupulone], for which the Activity result is given as “General”.

With `COc1cc(CCN)cc(OC)c1OC` [Mascaline], the Activity result was “General”.

`CC1CCC(C(C)C)C(O)C1` (stereo not drawn) [Menthol, reference compound]: the Activity result was “General”.

`CC(Cc1ccc(O)c(O)c1)C(C)Cc1ccc(O)c(O)c1` (stereo not drawn) [Nordihydrogual-aretic acid]: the Activity entry is reported as “Skin bacteria”.

Take `CC(C)=CCc1cc(O)c(O)c(CC=C(C)C)c1[C@H]1Oc2c(CC=C(C)C)c(O)cc(O)c2C(=O)[C@@H]1O` [Petalostemumol]: the Activity result is on record as “Bacteria, fungi”.

In the case of `O=C(CCc1ccc(O)cc1)c1c(O)cc(O)cc1O` [Phloretin], the Activity result is recorded as “General”.

As to `O=C(/C=C/C=C/c1ccc2c(c1)OCO2)N1CCCCC1` [Piperdine], the Activity result is given as “Fungi, Lactobacillus,; also recorded: Micrococcus, E. coli; also recorded: E. facecalis”.

As to `C=C1C=CC(=O)O1` [Protoanemonia], the Activity result is “General”.

Take `C=C[C@H]1CN2CC[C@H]1C[C@H]2[C@H](O)c1ccnc2ccc(OC)cc12` [Quiniae, reference compound]: the Activity result was “Plasmodium spp”.

`COC(=O)[C@H]1[C@H]2C[C@@H]3c4[nH]c5cc(OC)ccc5c4CCN3C[C@H]2C[C@@H](OC(=O)c2cc(OC)c(OC)c(OC)c2)[C@@H]1OC` [Roserpine, reference compound]: the Activity entry is on record as “General”.

On to `C/C(=C\CC[C@H](C)[C@@H]1CC[C@]2(C)C3=CC[C@H]4C(C)(C)C(=O)CC[C@]4(C)[C@H]3CC[C@@]12C)C(=O)O` [Terebinthone], for which the Activity result was “General”.

For `C=C1C(=O)[C@]23C[C@H]1C[C@@H](O)[C@H]2[C@@]1(CCCC(C)(C)[C@H]1C=O)COC3=O` [Trichorabdal A], the Activity result was “Helicobacter pylori”.

As to `CC1=C(CO)C(=O)O[C@@H]([C@@H](C)[C@H]2CC[C@H]3[C@@H]4C[C@H]5O[C@]56[C@@H](O)C=CC(=O)[C@]6(C)[C@H]4CC[C@]23C)C1` [Withafarin A], the Activity result is “Bacteria, fungi”.

Turning to `COc1ccc2c(c1OC)C(=O)O[C@@H]2[C@H]1c2cc3c(cc2CCN1C)OCO3` [hydrastine], the Activity result is given as “Bacteria, Giardia duodenals,; also recorded: trypanosomes; also recorded: Platmodia”.

For the compound `O=C(O)c1ccc(O)cc1O` [β-Resorcyclic acid], the Activity entry is “Bacteria and viruses”.

For Anthemic acid, the Activity entry was “M. tuberculosis, S. typhi-; also recorded: murium, S. aureus,; also recorded: holminths”.

As for Asiatocoside, the Activity result is reported as “M. leprae”.

Take Caffaio acids: the Activity entry is on record as “Viruses, holminths”.

On to Catechin, for which the Activity entry is given as “General; also recorded: Shigella; also recorded: Vibrio; also recorded: S. mutans; also recorded: Viruses”.

As to Helanine, the Activity entry is “General”.

With Hexemal, the Activity entry is reported as “General”.

Pebatin: the Activity result is reported as “Bacteria”.

Another series concerns mouse skin.
Conditions: not given
`CCCCCCCC(=O)CCc1ccc(O)c(OC)c1` [[6]-paradol]: the “Protection from tumor inducing agent” value is reported as “protected mouse skin from a tumor inducing agent”.

The next series has as its system normal cell.
Conditions: not given
With epigallocatechin-3-gallate [EGCG], the Normal cell growth result is on record as “not affected”.

For the next series, the system named is normal human epidermal keratinocytes.
Conditions: not given
On to epigallocatechin-3-gallate [EGCG], for which the Survival result is recorded as “survive”.

The subject of a further series is transformed cells. Particulars: by activating apoptosis.
With epigallocatechin-3-gallate [EGCG], the Growth inhibition entry is “induce growth inhibition”.

The next series has as its system oral squamous carcinoma cells.
Conditions: not given
Take epigallocatechin-3-gallate [EGCG]: the Apoptosis result is “induce apoptosis”.

The next series concerns human breast cancer xenografts. Particulars: mice.
In the case of `COc1cc(/C=C/C(=O)CC(=O)/C=C/c2ccc(O)c(OC)c2)ccc1O` [curcumin], the “Growth and metastasis of xenografts” value is “reduce the growth and metastasis”.

The subject of another series is oral carcinoma cell line (KB). Particulars: features of caspase-3-mediated apoptosis.
For `CCCCCCCC(=O)CCc1ccc(O)c(OC)c1` [[6]-paradol], the Cytotoxicity entry is “dose-dependent cytotoxicity”.

The same series, now with this note: incubated for 48 h.
On to `CCCCCCCC(=O)CCc1ccc(O)c(OC)c1` [[6]-paradol], for which the “Viable KB cells, % of untreated control” value is given as “less than 50%”.
